≈ marks a conversion by molar mass, not a printed value.

Assay in all cases: Bacterial growth minimal inhibitory concentration (microdilution, cation-adjusted Mueller-Hinton Broth)
In general terms: In broth dilution the organism is exposed to a series of concentrations in liquid medium.

One experiment deals with S. aureus A798. The format is cell-based, Staphylococcus aureus. The settings on record: Staphylococcus aureus, A798; multiply-resistant strain (methicillin- and quinolone-resistant). A digest of the protocol: (§1)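 Broth microdilution in cation-adjusted Mueller-Hinton Broth per CLSI M7-A7; MICs in mg/L. S. aureus A798 is methicillin- and quinolone-resistant, K. pneumoniae T6474 penicillin-, cephalosporin- and quinolone-resistant; E. coli ATCC25922 and P. aeruginosa ATCC 27853 are quinolone-sensitive.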

The subject of another experiment is E. coli ATCC25922. The format is cell-based. The settings on record: Escherichia coli, ATCC25922; quinolone-sensitive strain. The essentials:
as §1

In a further experiment the test system is K. pneumoniae T6474. The format is cell-based, Klebsiella pneumoniae. The following applies: Klebsiella pneumoniae, T6474; multiply-resistant strain (penicillin-, cephalosporin- and quinolone-resistant). The essentials:
as §1

A further experiment relates to P. aeruginosa ATCC 27853. The format is cell-based, Pseudomonas aeruginosa. The following applies: Pseudomonas aeruginosa, ATCC27853; quinolone-sensitive strain. A digest of the protocol: as §1

Take `NCCOc1cc(-c2cccc(CNCC[C@H]3CN(c4ccc5c(n4)NC(=O)CO5)C(=O)O3)c2)ccn1.O=CO` [Example 19, 6-[(S)-5-(2-{3-[2-(2-amino-ethoxy)-pyridin-4-yl]-benzylamino}-ethyl)-2-oxo-oxazolidin-3-yl]-4H-pyrido[3,2-b][1,4]oxazin-3-one formate]: the MIC in the experiment on S. aureus A798 is 8 µg/mL; in the experiment with E. coli ATCC25922, 1 µg/mL; against K. pneumoniae T6474 it was 4 µg/mL; against P. aeruginosa ATCC 27853, 1 µg/mL.

For the compound `NCCOc1cncc(-c2cccc(CNCC[C@H]3CN(c4ccc5c(n4)NC(=O)CO5)C(=O)O3)c2)n1` [Example 15, 6-[(S)-5-(2-{3-[6-(2-amino-ethoxy)-pyrazin-2-yl]-benzylamino}-ethyl)-2-oxo-oxazolidin-3-yl]-4H-pyrido[3,2-b][1,4]oxazin-3-one], the MIC came to 0.5 µg/mL (≈ 0.989 µM) against S. aureus A798, 1 µg/mL (≈ 1.98 µM) in the experiment on E. coli ATCC25922, 2 µg/mL (≈ 3.96 µM) in the experiment with K. pneumoniae T6474 and 1 µg/mL (≈ 1.98 µM) in the experiment with P. aeruginosa ATCC 27853.

As to `C[C@H]1C[C@H](Oc2cccc(-c3cccc(CNCC[C@H]4CN(c5ccc6c(n5)NC(=O)CO6)C(=O)O4)c3)n2)CN1C` [Example $175, 6-[(S)-5-(2-{3-[6-((3S,5S)-1,5-dimethyl-pyrrolidin-3-yloxy)-pyridin-2-yl]-benzylamino}-ethyl)-2-oxo-oxazolidin-3-yl]-4H-pyrido[3,2-b][1,4]oxazin-3-one], the MIC turned out to be 0.25 µg/mL (≈ 0.448 µM) in the experiment with S. aureus A798, 2 µg/mL (≈ 3.58 µM) against E. coli ATCC25922, 4 µg/mL (≈ 7.16 µM) in the experiment with K. pneumoniae T6474 and 4 µg/mL (≈ 7.16 µM) against P. aeruginosa ATCC 27853.

In general, MIC refers to the smallest concentration in the dilution series that meets the test's criterion for growth inhibition. Low readings indicate a more susceptible organism, high ones a less susceptible organism.

For the origin of these results see patent publication US9850256B2, “Antibacterial basic biaromatic derivatives with aminoalkoxy substitution” (priority 2014, dated 2017).
